Results from BigSolDB 2.1.

O=C1OC(=O)[C@H]2[C@@H]1[C@@H]1C=C[C@H]2O1
solubility (mole fraction)
Conditions | 278.15 K | 283.15 K | 288.15 K | 293.15 K | 298.15 K | 303.15 K | 308.15 K | 313.15 K | 318.15 K | 323.15 K
in 1,4-dioxane | – | – | 0.0221 | 0.0275 | 0.0342 | 0.0421 | 0.052 | 0.0682 | 0.0869 | 0.131
in acetone | 0.0386 | 0.0439 | 0.0477 | 0.0551 | 0.0617 | 0.0703 | 0.0814 | 0.0929 | 0.104 | 0.126
in ethanol | 0.000635 | 0.00076 | 0.00091 | 0.00102 | 0.00124 | 0.00145 | 0.00169 | 0.00202 | 0.00238 | 0.00292
in ethyl acetate | 0.0152 | 0.0165 | 0.02 | 0.0223 | 0.0274 | 0.0309 | 0.0364 | 0.0414 | 0.0475 | 0.0559
in methyl acetate | 0.0225 | 0.028 | 0.0297 | 0.0357 | 0.0416 | 0.0483 | 0.0587 | 0.068 | 0.0805 | 0.0963
